≈ marks a conversion by molar mass, not a printed value. Read-outs that look alike come from different tables or passages of the source. Positions of bridges follow the written chain, without caps; N, C: chain ends. Non-standard residues stand in square brackets, D forms with d. Residues, ends and D or L forms follow the SMILES beside them. Phe(4-CF3) = N[C@@H](Cc1ccc(C(F)(F)F)cc1)C(=O)O; S5 = C=CCCC[C@](C)(N)C(=O)O; Dab = NCC[C@H](N)C(=O)O; Dap = NC[C@H](N)C(=O)O
Columns and labels:
E. coli = type: cell-based, Escherichia coli
Method in brief: (§1)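 Read-out is visible growth: the MIC is the minimum peptide concentration showing none after 20-24 h at 37 °C. Peptides were serially diluted from water stocks and mixed with log-phase bacteria (final 5×10^5 CFU/ml) in Mueller-Hinton or cation-adjusted Mueller-Hinton broth.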

A. baumannii = type: cell-based, Acinetobacter baumannii
Method in brief: as §1

P. aeruginosa = type: cell-based, Pseudomonas aeruginosa
Method in brief: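 Broth microdilution adapted from CLSI in MHB or cation-adjusted MHB; log-phase P. aeruginosa at 5×10^5 CFU/ml final with serially diluted stapled peptides. Incubated 20-24 h at 37 °C; MIC is the lowest concentration without visible growth.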

K. pneumoniae = type: cell-based, Klebsiella pneumoniae
Method in brief: as §1

S. aureus = type: cell-based, Staphylococcus aureus
Method in brief: as §1

in vitro [1] = type: cell-based; conditions: human
Procedure: Cell culture: RPTEC were maintained in MEM media supplemented with growth factors. HEPG2 cell line was maintained in Eagle's Minimum Essential Medium (EMEM) supplemented with fetal bovine serum to a final concentration of 10%.
90 minute cytotoxicity assay: Cells were plated in a 96-well format, and after overnight incubation, media was replaced with fresh media. Serial dilutions of StAMPs from a 5 mg/mL water stock, or vehicle, were added to the cells in a final volume of 100 μl. After incubating at 37° C. for 90 min, 50 μl of cell culture media was transferred to a clear 96-well plate, incubated with 50 μl of lactate dehydrogenase (LDH) assay reagent for 10 min, and absorbance measured at 490 nm on a microplate reader.
Renal toxicity was measured after 90 minutes of incubation, while liver toxicity was measured after 48 hours of incubation with StAMPs. N/A=not tested. The following apply to all peptides (i.e., StAMPs) listed in Tables A-C: Crosslinks (X^1—X^2 and X^3—X^4): (alk); N-terminus: —NH2; C-terminus: amidated with —NH2; counterion: Cl^−. The following apply to all peptides (i.e., StAMPs) listed in Table D: Crosslinks (X^1—X^2 and X^3—X^4): (alk); N-terminus: —NH2; C-terminus: as shown in table; counterion: Cl^−.
StAMP Micelle Formulation: DSPE-MPEG(2000) was suspended in buffered saline at 50-100 mg/mL overnight. StAMP stock solutions at 5-20 mg/mL in buffered saline were prepared and equal volumes of micelle and StAMP stock solution were mixed at the desired StAMP:Lipid ratio. Suspensions were allowed to sit for 5-10 minutes at room temperature before being used in in vitro and in vivo assays.
In Table E, the StAMP is StAMP 4 (Table A) and “Lipid”=DSPE-MPEG(2000).

in vitro [2] = type: cell-based; conditions: human; remark: listed apart in the source
Method in brief: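 HepG2 cells in EMEM with 10% FBS, allowed 4 h to attach, then exposed to serial dilutions of StAMPs (from a 5 mg/mL water stock) or vehicle. After 48 h at 37 °C, viability read by CellTiter-Glo luminescence.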

[3] = Inhibitory Concentration at 50% Cytotoxicity (IC50) Human Liver Cells (HepG2)

Row | Structure (SMILES) | Minimum Inhibitory Concentration (MIC) E. coli (E. coli) [µg/mL] | Minimum Inhibitory Concentration (MIC) A. baumannii (A. baumannii) [µg/mL] | Minimum Inhibitory Concentration (MIC) P. aeruginosa (P. aeruginosa) [µg/mL] | Minimum Inhibitory Concentration (MIC) K. pneumoniae (K. pneumoniae) [µg/mL] | Minimum Inhibitory Concentration (MIC) S. aureus (S. aureus) [µg/mL] | IC50 at 90 min (in vitro [1]) [µg/mL] | IC50 at 48 hours (in vitro [2]; [3]) [µg/mL] | IC50 at 90 min (in vitro [1]; 90 minutes of incubation, read-out: Inhibitory Concentration at 50% Cytotoxicity (IC50) Human Renal Proximal Tubule Epithelial Cells (RPTEC)) [µg/mL] | IC50 at 48 hours (in vitro [2]; 48 hours of incubation, read-out: Inhibitory Concentration at 50% Cytotoxicity (IC50) Human Liver Cells (HepG2)) [µg/mL]
1 | CC(C)[C@@H]1NC(=O)[C@@](C)(NC(=O)[C@H](C)NC(=O)[C@H](CCCCN)NC(=O)CNC(=O)[C@H](Cc2ccccc2)NC(=O)[C@H](CCCCN)NC(=O)[C@H](CCCCN)NC(=O)[C@H](CCCCN)NC(=O)[C@H](CO)NC(=O)[C@H](Cc2c[nH]cn2)NC(=O)[C@]2(C)CCCC=CCCC[C@](C)(NC(=O)CN)C(=O)N[C@@H](Cc3c[nH]c4ccccc34)C(=O)N[C@@H](CCCCN)C(=O)N[C@@H](Cc3ccccc3)C(=O)N2)CCCC=CCCC[C@@](C)(C(=O)N[C@@H](C)C(=O)N[C@@H](CCCCN)C(=O)N[C@@H](CCCCN)C(N)=O)NC(=O)[C@H](CCC(=O)O)NC(=O)CNC1=O [compound 57] (H-G[S5]WKF[S5]HSKKKFGKA[S5]VGE[S5]AKK-NH2; staple 2-6, 16-20) | 4 | 4 | 8 | 16 | 32 | 35 (≈ 13.2 µM) | 70 (≈ 26.3 µM) | – | –
2 | CC(C)[C@@H]1NC(=O)[C@@](C)(NC(=O)[C@H](C)NC(=O)[C@H](CN)NC(=O)CNC(=O)[C@H](Cc2ccccc2)NC(=O)[C@H](CN)NC(=O)[C@H](CN)NC(=O)[C@H](CN)NC(=O)[C@H](CN)NC(=O)[C@H](CN)NC(=O)[C@]2(C)CCCC=CCCC[C@](C)(NC(=O)CN)C(=O)NCC(=O)N[C@@H](CN)C(=O)N[C@@H](Cc3ccccc3)C(=O)N2)CCCC=CCCC[C@@](C)(C(=O)N[C@@H](C)C(=O)N[C@@H](CCCCN)C(=O)N[C@@H](CCCCN)C(N)=O)NC(=O)[C@H](CCC(=O)O)NC(=O)CNC1=O [compound 78] (H-G[S5]G[Dap]F[S5][Dap][Dap][Dap][Dap][Dap]FG[Dap]A[S5]VGE[S5]AKK-NH2; staple 2-6, 16-20) | 16 | 8 | 2 | 16 | >64 | > 200 | > 200 | – | –
3 | CC(C)[C@@H]1NC(=O)[C@@](C)(NC(=O)[C@H](C)NC(=O)[C@H](CCCCN)NC(=O)CNC(=O)[C@H](Cc2ccccc2)NC(=O)[C@H](CCCCN)NC(=O)[C@H](CCCCN)NC(=O)[C@H](CCCCN)NC(=O)[C@H](CCCCN)NC(=O)[C@H](CCCCN)NC(=O)[C@]2(C)CCCC=CCCC[C@](C)(NC(=O)CN)C(=O)NCC(=O)N[C@@H](CCCCN)C(=O)N[C@@H](Cc3ccccc3)C(=O)N2)CCCC=CCCC[C@@](C)(C(=O)N[C@@H](C)C(=O)N[C@@H](CCCCN)C(=O)N[C@@H](CCCCN)C(=O)NCC(=O)NCC(=O)N[C@@H](CCC(=O)O)C(N)=O)NC(=O)[C@H](CCC(=O)O)NC(=O)[C@H](Cc2ccccc2)NC1=O [compound 33] (H-G[S5]GKF[S5]KKKKKFGKA[S5]VFE[S5]AKKGGE-NH2; staple 2-6, 16-20) | 2 | 2 | 4 | 4 | >64 | – | – | ~200 (≈ 69 µM) | > 200
4 | CC(C)[C@@H]1NC(=O)[C@@](C)(NC(=O)[C@H](C)NC(=O)[C@H](CCCCN)NC(=O)CNC(=O)[C@H](Cc2ccccc2)NC(=O)[C@H](CCCCN)NC(=O)[C@H](CCCCN)NC(=O)[C@H](CCCCN)NC(=O)[C@H](CCCCN)NC(=O)[C@H](CCCCN)NC(=O)[C@]2(C)CCCC=CCCC[C@](C)(NC(=O)CN)C(=O)NCC(=O)N[C@@H](CCCCN)C(=O)N[C@@H](Cc3ccccc3)C(=O)N2)CCCC=CCCC[C@@](C)(C(=O)N[C@@H](C)C(=O)N[C@@H](CCCCN)C(=O)N[C@@H](CCCCN)C(=O)NCC(=O)NCC(=O)N[C@@H](CCC(=O)O)C(N)=O)NC(=O)[C@H](CCC(=O)O)NC(=O)[C@H](Cc2ccc(C(F)(F)F)cc2)NC1=O [compound 35] (H-G[S5]GKF[S5]KKKKKFGKA[S5]V[Phe(4-CF3)]E[S5]AKKGGE-NH2; staple 2-6, 16-20) | 2 | 2 | 2 | 2 | 64 | ~200 (≈ 67.4 µM) | > 200 | – | –
5 | CC(C)[C@@H]1NC(=O)[C@@](C)(NC(=O)[C@H](C)NC(=O)[C@H](CCCCN)NC(=O)CNC(=O)[C@H](Cc2ccccc2)NC(=O)[C@H](CCCCN)NC(=O)[C@H](CCCCN)NC(=O)[C@H](CCCCN)NC(=O)[C@H](CO)NC(=O)[C@H](Cc2c[nH]cn2)NC(=O)[C@]2(C)CCCC=CCCC[C@](C)(NC(=O)CN)C(=O)NCC(=O)N[C@@H](CCCCN)C(=O)N[C@@H](Cc3ccccc3)C(=O)N2)CCCC=CCCC[C@@](C)(C(=O)N[C@@H](C)C(=O)N[C@@H](CCCCN)C(=O)N[C@@H](CCCCN)C(N)=O)NC(=O)[C@H](CCC(=O)O)NC(=O)CNC1=O [compound 1] (H-G[S5]GKF[S5]HSKKKFGKA[S5]VGE[S5]AKK-NH2; staple 2-6, 16-20) | 2 | 2 | 8 | 32 | >64 | 294 (≈ 116 µM) | 391 (≈ 154 µM) | – | –
6 | CC(C)[C@@H]1NC(=O)[C@@](C)(NC(=O)[C@H](C)NC(=O)[C@H](CCCCN)NC(=O)CNC(=O)[C@H](Cc2ccccc2)NC(=O)[C@H](CCCCN)NC(=O)[C@H](CCCCN)NC(=O)[C@H](CCCCN)NC(=O)[C@H](CCC(N)=O)NC(=O)[C@H](Cc2c[nH]cn2)NC(=O)[C@]2(C)CCCC=CCCC[C@](C)(NC(=O)CN)C(=O)NCC(=O)N[C@@H](CCCCN)C(=O)N[C@@H](Cc3ccccc3)C(=O)N2)CCCC=CCCC[C@@](C)(C(=O)N[C@@H](C)C(=O)N[C@@H](CCCCN)C(=O)N[C@@H](CCCCN)C(N)=O)NC(=O)[C@H](CCC(=O)O)NC(=O)CNC1=O [compound 7] (H-G[S5]GKF[S5]HQKKKFGKA[S5]VGE[S5]AKK-NH2; staple 2-6, 16-20) | 6 | 4 | 8 | >64 | >64 | > 200 | > 200 | – | –
7 | CC(C)[C@@H]1NC(=O)[C@@](C)(NC(=O)[C@H](C)NC(=O)[C@H](CCCCN)NC(=O)CNC(=O)[C@H](Cc2ccccc2)NC(=O)[C@H](CCCCN)NC(=O)[C@H](CCCCN)NC(=O)[C@H](CCCCN)NC(=O)[C@H](CCN)NC(=O)[C@H](CCCCN)NC(=O)[C@]2(C)CCCC=CCCC[C@](C)(NC(=O)CN)C(=O)NCC(=O)N[C@@H](CCCCN)C(=O)N[C@@H](Cc3ccccc3)C(=O)N2)CCCC=CCCC[C@@](C)(C(=O)N[C@@H](C)C(=O)N[C@@H](CCCCN)C(=O)N[C@@H](CCCCN)C(N)=O)NC(=O)[C@H](CCC(=O)O)NC(=O)CNC1=O [compound 38] (H-G[S5]GKF[S5]K[Dab]KKKFGKA[S5]VGE[S5]AKK-NH2; staple 2-6, 16-20) | 2 | 2 | 2 | 4 | >64 | 117 (≈ 46.1 µM) | – | – | –

Source: patent US20240174723A1, “STAPLED ANTIMICROBIAL PEPTIDES (STAMPS) AND USES THEREOF” (Lytica Therapeutics, Inc., priority 2021, published 2024)
